Experiment: Solubilization of sparingly water-soluble active ingredient in aqueous poloxamer formulations, quantified by UV/Vis spectroscopy
Type: physicochemical
Description: General procedure for the preparation of the aqueous formulations: […]
The data in % by weight in the tables below refer to the total amount of the aqueous formulation.
Components A and B in the amounts stated below in each case and also 2% by weight of active ingredient were dissolved in water (at 20° C. and ambient pressure).
The sample was stirred at 20° C. for 24 h (magnetic stirrer 500 rpm) and then filtered through an injection filter (PVDF filter membrane, 0.45 μm pore size).
The active ingredient quantification takes place via UV/Vis spectroscopy. For this, the samples were diluted with an organic solvent in which the active ingredient dissolves to at least 10 000 ppm (1% by weight) (ethanol).
By contrast, the solubilizing effect of a 5% strength by weight aqueous solution of PE10400 as individual component was stipulated as standard with the value 1 and the solubilizing effect of the mixtures was determined against this standard.
The solubilizing effect of a 5% strength by weight aqueous solution of PE 10400 was again selected as standard 1.

solubility in a 5% strength by weight aqueous solution of PE 4300 (component B) (5% by weight PE 4300 in water, 20° C., 24 h stirring, filtered 0.45 μm): 28 ppm
solubility in a 5% strength by weight aqueous solution of PE 6200 (component B) (5% by weight PE 6200 in water, 20° C., 24 h stirring, filtered 0.45 μm): 31 ppm
solubility in a 5% strength by weight aqueous solution of PE 10400 (component A) (5% by weight PE 10400 in water, 20° C., 24 h stirring, filtered 0.45 μm): 710 ppm
solubility in pure water (pure water): 5 ppm
SMILES: Cn1cc(C(=O)Nc2ccccc2-c2cc(F)c(F)c(F)c2)c(C(F)F)n1 [fluxapyroxad]

Source: patent US20160074517A1, “AQUEOUS FORMULATIONS OF SPARINGLY WATER-SOLUBLE ACTIVE INGREDIENTS COMPRISING AS SOLUBILIZER A MIXTURE OF POLOXAMERS DIFFERING IN HYDROPHOBICITY” (BASF SE, priority 2013, published 2016)
